Measured values reported in patent US9018214B2, “Bicyclic heterocycle compounds and their uses in therapy” (Astex Therapeutics Limited, priority 2011, dated 2015).
Where a name gives a salt, the structure may show the parent alone. Read-outs that look alike come from different tables or passages of the source.

Key:
[1] = molecular target: BIR3 domain of human XIAP (residues 252-350) (Homo sapiens (Human), UniProt P98170); assay: XIAP in vitro competitive displacement binding assay (fluorescence polarization); conditions: for IC50: read-out: IC50 or PI Xiap: IC50; for inhibition at 0.04 µM: 1 h, read-out: IC50 or PI Xiap: PI
[2] = molecular target: BIR3 domain of human cIAP-1 (residues 267-363) (Homo sapiens (Human), UniProt Q13490); assay: cIAP-1 in vitro competitive displacement binding assay (fluorescence polarization; Probe A AVPIK(5&6FAM)-amide or Probe B AbuRPFK(5&6FAM)-amide)
[3] = system: EVSA-T (human breast carcinoma); assay: Anti-proliferative activity, Alamar Blue assay, EVSA-T; format: cell-based; conditions: Homo sapiens
[4] = 3 h, read-out: IC50 or PI cIAP1: PI
[5] = EVSA-T, 72 h, read-out: EVSA-T prolif (EC50)
[6] = EVSA-T, 72 hours, Alamar Blue, read-out: EVSA-T prolif (EC50)
[7] = Probe B AbuRPFK(5&6FAM)-amide, read-out: IC50 or PI cIAP1: IC50
[8] = read-out: IC50 or PI cIAP1: IC50
[9] = 3 h, Probe B, @ 0.012 μM, read-out: IC50 or PI cIAP1: PI

EC50 [3, 6] [nM] | SMILES | IC50 [1] [nM] | EC50 [3, 5] [nM] | also measured
 | C[C@@H]1CN(CC(=O)N2CC(C)(C)c3ncc(Cc4ccc(F)cc4F)cc32)[C@@H](CN2CCOCC2)CN1 [Example 236, 1-{6-[(2,4-Difluorophenyl)methyl]-3,3-dimethyl-1H,2H,3H-pyrrolo[3,2-b]pyridin-1-yl}-2-[(2R,5R)-5-methyl-2-(morpholin-4-ylmethyl)piperazin-1-yl]ethan-1-one dihydrochloride] | 58 | 7.8 | inhibition at […] [2, 4]: 96%
1600 | CCC1(CC)CN(C(=O)CN2C[C@@H](C)NC[C@@H]2C(=O)N2CCOCC2)c2cc(Cl)ccc21 [Example 135, 1-(6-Chloro-3,3-diethyl-2,3-dihydro-1H-indol-1-yl)-2-[(2R,5R)-5-methyl-2-[(morpholin-4-yl)carbonyl]piperazin-1-yl]ethan-1-one hydrochloride] | 400 |  | IC50 [2, 7]: 79 nM
 | C[C@@H]1CN(CC(=O)N2CC(C)(C)c3cnc(Cc4ccc(F)cc4F)cc32)[C@@H](Cn2ncccc2=O)CN1 [Example 194, 2-{[(2R,5R)-1-(2-{6-[(2,4-Difluorophenyl)methyl]-3,3-dimethyl-1H,2H,3H-pyrrolo[3,2-c]pyridin-1-yl}-2-oxoethyl)-5-methylpiperazin-2-yl]methyl}-2,3-dihydropyridazin-3-one dihydrochloride] | 55 | 9.8 | inhibition at […] [2, 4]: 99%
 | COC[C@H]1CN[C@H](C)CN1CC(=O)N1CC(C)(C)c2ccc(S(=O)(=O)Cc3ccccc3)cc21 [Example 70, 1-(3,3-Dimethyl-6-phenylmethane-sulfonyl-2,3-dihydro-indol-1-yl)-2-((2R,5R)-2-methoxymethyl-5-methyl-piperazin-1-yl)-ethanone dihydrochloride salt] | 380 | 7900 | IC50 [2, 8]: 820 nM; EC50 ([3]; EVSA-T, 72 h, read-out: EC50, inhibition of cell growth): < 10000 nM
4000 | C[C@@H]1CN(CC(=O)N2C[C@](C)(c3ccccc3)c3ccc(C#N)cc32)[C@@H](C(=O)N2CCOCC2)CN1 [Example 153, (3R)-3-Methyl-1-{2-[(2R,5R)-5-methyl-2-[(morpholin-4-yl)carbonyl]piperazin-1-yl]acetyl}-3-phenyl-2,3-dihydro-1H-indole-6-carbonitrile] |  |  | inhibition at 0.04 µM ([1]; @ 0.04 μM): 54%; IC50 [2, 7]: 160 nM
 | C[C@@H]1CN(CC(=O)N2CC(C)(C)c3cnc(Cc4ccccc4)cc32)[C@@H](C(=O)N2CCCCC2)CN1 [Example 133, 1-{6-Benzyl-3,3-dimethyl-1H,2H,3H-pyrrolo[3,2-c]pyridin-1-yl}-2-[(2R,5R)-5-methyl-2-[(piperidin-1-yl)carbonyl]piperazin-1-yl]ethan-1-one dihydrochloride] | 91 | 110 | inhibition at 0.01 µM [2, 4]: 71%
200 | COC[C@H]1CN[C@H](C)CN1CC(=O)N1C[C@@](C)(c2cc(C)no2)c2ccc(Cc3ccccc3)cc21 [Example 175, 1-[(3S)-6-Benzyl-3-methyl-3-(3-methyl-1,2-oxazol-5-yl)-2,3-dihydro-1H-indol-1-yl]-2-[(2R,5R)-2-(methoxymethyl)-5-methylpiperazin-1-yl]ethan-1-one hydrochloride] | 110 |  | IC50 [2]: < 1000 nM; IC50 [2, 7]: 11 nM
450 | C[C@@H]1CN(CC(=O)N2CC(C)(C)c3cnc(Cc4ccccc4)cc32)[C@@H](C(=O)N2CCC2)CN1 [Example 100, 2-[(2R,5R)-2-[(Azetidin-1-yl)carbonyl]-5-methyl-piperazin-1-yl]-1-{6-benzyl-3,3-dimethyl-1H,2H,3H-pyrrolo[3,2-c]pyridin-1-yl}ethan-1-one, hydrochloride salt] | 120 |  | IC50 [2, 7]: 14 nM
 | CNS(=O)(=O)c1ccc2c(c1)N(C(=O)CN1C[C@@H](C)NC[C@@H]1COC)CC2(C)C [Example 61, 1-[2-((2R,5R)-2-Methoxymethyl-5-methyl-piperazin-1-yl)-acetyl]-3,3-dimethyl-2,3-dihydro-1H-indole-6-sulfonic acid methylamide dihydrochloride salt] | 220 |  | IC50 [2, 8]: 1600 nM; inhibition at 10 µM ([3]; EVSA-T, read-out: EVSA-T prolif: % inhibition): 0%
 | C[C@@H]1CN(CC(=O)N2CC(C)(C)c3cnc(Cc4ccc(F)cc4F)cc32)[C@@H](C(=O)N(C)C)CN1 [Example 164, (2R,5R)-1-(2-{6-[(2,4-Difluorophenyl)methyl]-3,3-dimethyl-1H,2H,3H-pyrrolo[3,2-c]pyridin-1-yl}-2-oxoethyl)-N,N,5-trimethylpiperazine-2-carboxamide dihydrochloride] | 120 | 45 | inhibition at […] [2, 4]: 86%
17 | C[C@@H]1CN(CC(=O)N2CC(C)(C)c3cnc(Cc4ccc(F)cc4F)cc32)[C@@H](CN2CCOCC2=O)CN1 [Example 191, 4-{[(2R,5R)-1-(2-{6-[(2,4-Difluorophenyl)methyl]-3,3-dimethyl-1H,2H,3H-pyrrolo[3,2-c]pyridin-1-yl}-2-oxoethyl)-5-methylpiperazin-2-yl]methyl}morpholin-3-one hydrochloride] | 47 |  | inhibition at […] [2, 9]: 94%
27 | CCCC(F)(F)c1cc2c(cn1)C(C)(C)CN2C(=O)CN1C[C@@H](C)NC[C@@H]1CN1CCCC1=O [Example 227, 1-{[(2R,5R)-1-{2-[6-(1,1-Difluorobutyl)-3,3-dimethyl-1H,2H,3H-pyrrolo[3,2-c]pyridin-1-yl]-2-oxoethyl}-5-methylpiperazin-2-yl]methyl}pyrrolidin-2-one hydrochloride] |  |  | inhibition at 0.04 µM ([1]; @ 0.04 μM): 60%; inhibition at […] [2, 9]: 78%
 | C[C@@H]1CN(CC(=O)N2CC3(Cc4ccccc4C3)c3ccc(Cl)cc32)[C@@H](Cn2cccn2)CN1 [Example 142, 1-{6′-Chloro-1,1′,2′,3-tetrahydrospiro[indene-2,3′-indole]-1′-yl}-2-[(2R,5R)-5-methyl-2-(1H-pyrazol-1-ylmethyl)piperazin-1-yl]ethan-1-one hydrochloride] | 220 |  | IC50 [2, 7]: 150 nM; inhibition at 1 µM ([3]; EVSA-T, at 1 μM, read-out: EVSA-T prolif: % inhibition): 20%
 | Cc1cnn(C[C@H]2CN[C@H](C)CN2CC(=O)N2CC(C)(C)c3cnc(Cc4ccccc4)cc32)c1 [Example 147, 1-{6-Benzyl-3,3-dimethyl-1H,2H,3H-pyrrolo[3,2-c]pyridin-1-yl}-2-[(2R,5R)-5-methyl-2-[(4-methyl-1H-pyrazol-1-yl)methyl]piperazin-1-yl]ethan-1-one hydrochloride] |  | 110 | inhibition at 0.04 µM ([1]; @ 0.04 μM): 49%
 | C[C@@H]1CN(CC(=O)N2CC(C)(C)c3ncc(Cc4ccc(F)cc4)cc32)[C@@H](CN2CCOCC2)CN1 [Example 234, 1-{6-[(4-Fluorophenyl)methyl]-3,3-dimethyl-1H,2H,3H-pyrrolo[3,2-b]pyridin-1-yl}-2-[(2R,5R)-5-methyl-2-(morpholin-4-ylmethyl)piperazin-1-yl]ethan-1-one dihydrochloride] | 74 | 9.6 | 
 | C[C@@H]1CN(CC(=O)N2CC(C)(C)c3ncc(Cc4ccc(F)cc4F)cc32)[C@@H](CN2CCCC2=O)CN1 [Example 199, 1-{[(2R,5R)-1-(2-{6-[(2,4-Difluorophenyl)methyl]-3,3-dimethyl-1H,2H,3H-pyrrolo[3,2-b]pyridin-1-yl}-2-oxoethyl)-5-methylpiperazin-2-yl]methyl}pyrrolidin-2-one dihydrochloride] | 63 | 5.6 | 

SMILES | EC50 [3, 6] [nM] | IC50 [1] [nM] | EC50 [3, 5] [nM] | also measured
C[C@@H]1CN(CC(=O)N2CC(C)(C)c3ncc(C(F)(F)CC4CC4)cc32)[C@@H](CN2CCCC2=O)CN1 [Example 230, 1-{[(2R,5R)-1-{2-[6-(2-Cyclopropyl-1,1-difluoroethyl)-3,3-dimethyl-1H,2H,3H-pyrrolo[3,2-b]pyridin-1-yl]-2-oxoethyl}-5-methylpiperazin-2-yl]methyl}pyrrolidin-2-one formate] | 110 |  |  | inhibition at 0.04 µM [1]: 53%; inhibition at […] [2, 4]: 60%
COC[C@H]1CN[C@H](C)CN1CC(=O)N1C[C@](C)(c2ccccc2)c2ccc(C#N)cc21 [Example 140, (3R)-1-{2-[(2R,5R)-2-(Methoxymethyl)-5-methylpiperazin-1-yl]acetyl}-3-methyl-3-phenyl-2,3-dihydro-1H-indole-6-carbonitrile] | 8600 | 94 |  | EC50 ([3]; EVSA-T cell line, 72 hours, Alamar Blue, read-out: EC50, inhibition of cell growth): < 10000 nM
C[C@@H]1CN(CC(=O)N2CC(C)(C)c3cnc(C(F)(F)c4ccccc4)cc32)[C@@H](C(=O)N2CCOCC2)CN1 [Example 178, 1-{6-[Difluoro(phenyl)methyl]-3,3-dimethyl-1H,2H,3H-pyrrolo[3,2-c]pyridin-1-yl}-2-[(2R,5R)-5-methyl-2-[(morpholin-4-yl)carbonyl]piperazin-1-yl]ethan-1-one dihydrochloride] | 67 |  |  | inhibition at 0.04 µM [1]: 50%; inhibition at […] [2, 4]: 60%
C[C@@H]1CN(CC(=O)N2CC(C)(C)c3cnc(C(F)(F)c4ccccc4)cc32)[C@@H](CN2CC[C@@H](F)C2)CN1 [Example 213, 1-{6-[Difluoro(phenyl)methyl]-3,3-dimethyl-1H,2H,3H-pyrrolo[3,2-c]pyridin-1-yl}-2-[(2R,5R)-2-{[(3R)-3-fluoropyrrolidin-1-yl]methyl]-5-methylpiperazin-1-yl]ethan-1-one dihydrochloride] | 6 |  |  | inhibition at 0.04 µM [1]: 61%; inhibition at […] [2, 4]: 82%
COC[C@H]1CN[C@H](C)CN1CC(=O)N1CC(C)(c2ccccc2)c2ccc(C#N)cc21 (mixture of isomers) [Example 136, 1-{2-[(2R,5R)-2-(Methoxymethyl)-5-methylpiperazin-1-yl]acetyl}-3-methyl-3-phenyl-2,3-dihydro-1H-indole-6-carbonitrile] | 2800 | 110 |  | 
